Experiment: Stability study of crystal form A
Assay type: physicochemical
Settings: for Crystal form / Purity: 25° C.
From the text: Experimental Example 1 Stability Study

Crystal form (0 day): Crystal form A
Purity (0 day): 99.45%
Crystal form (1 month): Crystal form A
Purity (1 month): 99.41%
Crystal form (3 months): Crystal form A
Purity (3 months): 99.43%
Crystal form after drying (dried under vacuum at 50° C. for 3 hours): not changed
Crystal form after storage (room temperature (25° C.), 3 months): not changed
Compound: CCOc1ccc(Cc2cc([C@]3(OCC)O[C@H](CO)[C@@H](O)[C@H](O)[C@H]3O)ccc2Cl)cc1 [crystal form A, (2S,3R,4S,5S,6R)-2-(4-chloro-3-(4-ethoxybenzyl)phenyl)-2-ethoxy-6-(methylhydroxy)tetrahydro-2H-pyran-3,4,5-triol]

Reference: patent publication US20190284220A1, “CRYSTAL FORM OF DAPAGLIFLOZIN INTERMEDIATE AND PREPARATION METHOD THEREFOR” (Jiangsu Hansoh Pharmaceutical Group Co., Ltd., priority 2016, published 2019)
